Laboratory results as given in patent US20250144067A1, “PERSONALIZED STARVATION THERAPY FOR CANCER” (Faeth Therapeutics, Inc., priority 2021, published 2025).
Counter-ions that a name gives are not always drawn. Like-named read-outs stand apart in the source and are kept apart here.

Tests used:
[1] = tested on: NCI-H292 lung cancer cells; experiment: FDA drug screening, complete media vs cholesterol-free media without statin (TABLE 1); format: cell-based, human
[2] = tested on: NCI-H292 lung cancer cells; experiment: FDA drug screening, complete media vs cholesterol-free media with simvastatin (TABLE 2); format: cell-based, human
[3] = Complete minus Cholesterol-free, […]
[4] = NCI-H292 cells, FDA drug library screen, cholesterol-free media without statin
[5] = NCI-H292 cells, FDA drug library screen, complete media
[6] = NCI-H292 cells, FDA drug library screen, cholesterol-free media with simvastatin 0.04 μM
[7] = complete media vs cholesterol-free media + simvastatin (0.04 μM), […]
[8] = NCI-H292 cells, cholesterol-free media without statin, FDA drug library screen
[9] = NCI-H292 cells, drug in cholesterol-free media with simvastatin 0.04 μM
[10] = NCI-H292 cells, drug in complete media
[11] = NCI-H292 cells, complete media, FDA drug library screen
[12] = complete vs cholesterol-free media, >0 enhanced anti-cancer activity, about 0 neutral, <0 antagonist
[13] = complete media vs cholesterol-free media + simvastatin (0.04 μM), >0 enhanced anti-cancer activity, about 0 neutral, <0 antagonist
[14] = Complete minus Cholesterol-free, greater than 0 enhanced anti-cancer activity, about 0 neutral, below 0 antagonist
[15] = NCI-H292 cells, FDA library drug in cholesterol-free media with simvastatin 0.04 μM
[16] = NCI-H292 cells, FDA library drug in complete media
[17] = NCI-H292 cells in cholesterol-free media without statin
[18] = NCI-H292 cells in complete media
[19] = NCI-H292 cells, cholesterol-free media without statin
[20] = complete vs cholesterol-free media, greater than 0 enhanced anti-cancer activity, about 0 neutral, below 0 antagonists
[21] = NCI-H292 cells, cholesterol-free media with simvastatin 0.04 μM, FDA drug library screen (TABLE 2)
[22] = NCI-H292 cells, complete media, FDA drug library screen (TABLE 2)
[23] = complete media minus cholesterol-free media + simvastatin (0.04 μM), >0 enhanced anti-cancer activity, about 0 neutral, <0 antagonist
[24] = Complete minus Cholesterol-free, >0 enhanced anti-cancer activity, about 0 neutral, <0 antagonist
[25] = complete media minus cholesterol-free media + simvastatin, >0 enhanced anti-cancer activity, about 0 neutral, <0 antagonist
[26] = NCI-H292 cells, cholesterol-free media with simvastatin 0.04 μM, cell growth value in FDA drug screen
[27] = NCI-H292 cells, complete media, cell growth value in FDA drug screen

SMILES: Nc1ccc(C(=O)O)c(O)c1 [4-Aminosalicylic acid]
- Difference [1, 3]: −0.16
- Cholesterol-free [1, 4]: 1.094
- Complete [1, 5]: 0.9375
- Cholesterol-free media + simvastatin (0.04 μM) [2, 6]: 1.199
- Complete Media [2, 5]: 1.112
- Difference [2, 7]: −0.09

SMILES: Cc1ncc(COP(=O)(O)O)c(C)c1O [4-Deoxypyridoxine 5′-phosphate]
- Cholesterol-free [1, 8]: 0.7389
- Difference ([1]; complete vs cholesterol-free media, […]): 0.41
- Cholesterol-free media + simvastatin (0.04 μM) [2, 9]: 1.284
- Complete Media [2, 10]: 1.065
- Difference [2, 7]: −0.22

SMILES: Cc1cc(=O)oc2cc(O)ccc12 [4-Methylumbelliferone]
- Cholesterol-free [1, 8]: 0.6739
- Complete [1, 11]: 1.119
- Difference [1, 12]: 0.45
- Cholesterol-free media + simvastatin (0.04 μM) [2, 6]: 1.129
- Complete Media [2, 5]: 1.057
- Difference [2, 13]: −0.07

SMILES: O=C(O)CCCc1ccccc1 [4-Phenylbutyric acid]
- Difference [1, 14]: −0.13
- Cholesterol-free [1, 4]: 1.208
- Complete [1, 5]: 1.079
- Cholesterol-free media + simvastatin (0.04 μM) [2, 9]: 1.251
- Complete Media [2, 10]: 1.056
- Difference [2, 13]: −0.19

SMILES: CC(=O)c1ccc(O)c(C(=O)O)c1 [5-Acetylsalicylic acid]
- Cholesterol-free [1, 8]: 0.912
- Complete [1, 11]: 1.045
- Difference [1, 12]: 0.13
- Cholesterol-free media + simvastatin (0.04 μM) [2, 15]: 1.188
- Complete Media [2, 16]: 0.8198
- Difference [2, 13]: −0.37

SMILES: Cl.NCC(=O)CCC(=O)O [5-Aminolevulinic acid (hydrochloride)]
- Difference [1, 3]: −0.75
- Cholesterol-free [1, 17]: 1.604
- Complete [1, 18]: 0.8558
- Cholesterol-free media + simvastatin (0.04 μM) [2, 6]: 1.091
- Complete Media [2, 5]: 1.01
- Difference [2, 7]: −0.08

SMILES: Nc1ccc(O)c(C(=O)O)c1 [5-Aminosalicylic Acid]
- Cholesterol-free [1, 19]: 1.21
- Complete ([1]; NCI-H292 cells, complete media): 0.8775
- Difference [1, 20]: −0.33
- Cholesterol-free media + simvastatin (0.04 μM) [2, 9]: 1.224
- Complete Media [2, 10]: 1.016
- Difference [2, 13]: −0.21

SMILES: Nc1ncn([C@@H]2O[C@H](CO)[C@@H](O)[C@H]2O)c(=O)n1 [5-Azacytidine]
- Cholesterol-free [1, 19]: 1.157
- Complete ([1]; NCI-H292 cells, complete media): 0.8064
- Difference [1, 20]: −0.35
- Cholesterol-free media + simvastatin (0.04 μM) [2, 21]: 0.9383
- Complete Media [2, 22]: 0.8858
- Difference [2, 23]: −0.05

SMILES: O=c1[nH]cc(F)c(=O)[nH]1 [5-Fluorouracil]
- Difference [1, 14]: −0.13
- Cholesterol-free [1, 4]: 0.4728
- Complete [1, 5]: 0.3401
- Cholesterol-free media + simvastatin (0.04 μM) [2, 15]: 0.7934
- Complete Media [2, 16]: 0.5204
- Difference [2, 13]: −0.27

SMILES: N[C@@H](Cc1c[nH]c2ccc(O)cc12)C(=O)O [5-Hydroxytryptophan]
- Cholesterol-free [1, 19]: 1.189
- Complete ([1]; NCI-H292 cells, complete media): 0.856
- Difference [1, 20]: −0.33
- Cholesterol-free media + simvastatin (0.04 μM) [2, 9]: 1.063
- Complete Media [2, 10]: 0.8252
- Difference [2, 13]: −0.24

SMILES: CC(=O)NCCCCCC(=O)O [6-Acetamidohexanoic acid]
- Cholesterol-free [1, 19]: 1.348
- Complete ([1]; NCI-H292 cells, complete media): 1.01
- Difference [1, 20]: −0.34
- Cholesterol-free media + simvastatin (0.04 μM) [2, 9]: 1.04
- Complete Media [2, 10]: 0.7847
- Difference [2, 13]: −0.26

SMILES: NCCCCCC(=O)O [6-Aminocaproic acid]
- Cholesterol-free [1]: 1.11
- Complete [1]: 1.715
- Difference [1]: 0.60
- Cholesterol-free media + simvastatin (0.04 μM) [2]: 1.226
- Complete Media [2]: 1.745
- Difference [2]: 0.52

SMILES: O.Sc1ncnc2nc[nH]c12 [6-Mercaptopurine hydrate]
- Difference [1, 3]: −0.11
- Cholesterol-free [1, 4]: 0.3886
- Complete [1, 5]: 0.2796
- Cholesterol-free media + simvastatin (0.04 μM) [2, 9]: 0.9123
- Complete Media [2, 10]: 0.7458
- Difference [2, 7]: −0.17

SMILES: Sc1ncnc2nc[nH]c12 [6-Mercaptopurine]
- Difference [1, 24]: −0.28
- Cholesterol-free [1, 19]: 0.7087
- Complete ([1]; NCI-H292 cells, complete media): 0.4285
- Cholesterol-free media + simvastatin (0.04 μM) [2, 6]: 1.121
- Complete Media [2, 5]: 0.9807
- Difference [2, 13]: −0.14

SMILES: Nc1nc2nc[nH]c2c(=S)[nH]1 [6-Thioguanine]
- Cholesterol-free [1, 19]: 0.7053
- Complete ([1]; NCI-H292 cells, complete media): 0.3153
- Difference [1, 20]: −0.39
- Cholesterol-free media + simvastatin (0.04 μM) [2, 21]: 0.7013
- Complete Media [2, 22]: 0.7052
- Difference [2, 23]: 0.00

SMILES: Nc1c2ccccc2nc2ccccc12 [9-Aminoacridine]
- Difference [1, 24]: −0.03
- Cholesterol-free [1, 8]: 0.5968
- Complete [1, 11]: 0.5645
- Cholesterol-free media + simvastatin (0.04 μM) [2, 6]: 0.3257
- Complete Media [2, 5]: 0.5257
- Difference [2, 25]: 0.20

SMILES: C=CCCCCCCCCC(=O)O [10-Undecenoic acid (zinc salt)]
- Difference [1, 24]: −0.19
- Cholesterol-free [1, 19]: 1.263
- Complete ([1]; NCI-H292 cells, complete media): 1.076
- Cholesterol-free media + simvastatin (0.04 μM) [2, 15]: 1.561
- Complete Media [2, 16]: 1.235
- Difference [2, 13]: −0.33

SMILES: C=CCCCCCCCCC(=O)O [10-Undecenoic acid]
- Difference [1, 24]: 0.01
- Cholesterol-free [1, 8]: 0.9796
- Complete [1, 11]: 0.99
- Cholesterol-free media + simvastatin (0.04 μM) [2, 15]: 1.07
- Complete Media [2, 16]: 0.7648
- Difference [2, 13]: −0.30

SMILES: CC(=O)[C@@]1(O)CC[C@H]2[C@@H]3CCC4=CC(=O)CC[C@]4(C)[C@H]3CC[C@@]21C [17-Hydroxyprogesterone]
- Difference [1, 3]: −0.02
- Cholesterol-free [1, 8]: 1.202
- Complete [1, 11]: 1.185
- Cholesterol-free media + simvastatin (0.04 μM) [2, 6]: 0.9953
- Complete Media [2, 5]: 0.8962
- Difference [2, 7]: −0.10

SMILES: CC1(C)[C@@H](O)CC[C@]2(C)[C@H]3C(=O)C=C4[C@@H]5C[C@@](C)(C(=O)O)CC[C@]5(C)CC[C@@]4(C)[C@]3(C)CC[C@@H]12 [18β-Glycyrrhetinic acid]
- Difference [1, 14]: −0.09
- Cholesterol-free [1, 4]: 1.192
- Complete [1, 5]: 1.102
- Cholesterol-free media + simvastatin (0.04 μM) [2, 6]: 0.8991
- Complete Media [2, 5]: 0.8018
- Difference [2, 13]: −0.10

SMILES: CC(C)=CCC[C@](C)(O)[C@H]1CC[C@]2(C)[C@@H]1[C@H](O)C[C@@H]1[C@@]3(C)CC[C@H](O[C@@H]4O[C@H](CO)[C@@H](O)[C@H](O)[C@H]4O[C@@H]4O[C@H](CO)[C@@H](O)[C@H](O)[C@H]4O)C(C)(C)[C@@H]3CC[C@]12C [20(S)-Ginsenoside Rg3]
- Difference [1, 3]: −0.21
- Cholesterol-free [1, 19]: 1.062
- Complete ([1]; NCI-H292 cells, complete media): 0.8564
- Cholesterol-free media + simvastatin (0.04 μM) [2, 15]: 1.721
- Complete Media [2, 16]: 1.403
- Difference [2, 7]: −0.32

SMILES: CC12CCC(CC1=O)C2(C)C (stereo not drawn) [(+)-Camphor]
- Cholesterol-free [1, 8]: 0.9458
- Complete [1, 11]: 1.19
- Difference [1, 12]: 0.24
- Cholesterol-free media + simvastatin (0.04 μM) [2, 26]: 0.9198
- Complete Media [2, 27]: 1.05
- Difference [2, 25]: 0.13

SMILES: CC(=O)N1CCN(c2ccc(OC[C@H]3CO[C@](Cn4ccnc4)(c4ccc(Cl)cc4Cl)O3)cc2)CC1 [(+)-Ketoconazole]
- Difference [1, 24]: −0.24
- Cholesterol-free [1, 19]: 1.237
- Complete ([1]; NCI-H292 cells, complete media): 0.9934
- Cholesterol-free media + simvastatin (0.04 μM) [2, 6]: 0.4743
- Complete Media [2, 5]: 0.9511
- Difference [2, 25]: 0.48

SMILES: CC(C)NC[C@@H](O)COc1ccc(CC(N)=O)cc1 [(R)-(+)-Atenolol]
- Difference [1, 24]: 0.07
- Cholesterol-free [1, 8]: 0.8467
- Complete [1, 11]: 0.9214
- Cholesterol-free media + simvastatin (0.04 μM) [2, 15]: 1.166
- Complete Media [2, 16]: 0.872
- Difference [2, 13]: −0.29

SMILES: NC[C@H](CC(=O)O)c1ccc(Cl)cc1 [(R)-Baclofen]
- Difference [1, 3]: −0.91
- Cholesterol-free [1, 17]: 2.052
- Complete [1, 18]: 1.14
- Cholesterol-free media + simvastatin (0.04 μM) [2, 6]: 0.9854
- Complete Media [2, 5]: 0.8585
- Difference [2, 7]: −0.13

SMILES: COc1cccc(-c2c(C)n(Cc3c(F)cccc3C(F)(F)F)c(=O)n(C[C@H](NCCCC(=O)O)c3ccccc3)c2=O)c1F [(R)-Elagolix]
- Difference ([1]; Complete minus Cholesterol-free, greater than 0 enhanced anti-cancer activity, about 0 neutral, below 0 antagonists): −0.49
- Cholesterol-free [1, 17]: 1.394
- Complete [1, 18]: 0.8996
- Cholesterol-free media + simvastatin (0.04 μM) [2, 6]: 1.16
- Complete Media [2, 5]: 1.077
- Difference [2, 13]: −0.08

SMILES: Cc1c(OCC(F)(F)F)ccnc1C[S@@+]([O-])c1nc2ccccc2[nH]1 [(R)-Lansoprazole]
- Difference [1, 14]: −0.18
- Cholesterol-free [1, 4]: 0.9835
- Complete [1, 5]: 0.8054
- Cholesterol-free media + simvastatin (0.04 μM) [2, 21]: 1.431
- Complete Media [2, 22]: 1.389
- Difference [2, 23]: −0.04

SMILES: N[C@H](CO)C(=O)O [(R)-Serine]
- Cholesterol-free [1, 19]: 1.718
- Complete ([1]; NCI-H292 cells, complete media): 1.345
- Difference [1, 20]: −0.37
- Cholesterol-free media + simvastatin (0.04 μM) [2, 26]: 0.9633
- Complete Media [2, 27]: 1.052
- Difference [2, 25]: 0.09

SMILES: COc1cc2nc(N3CCN(C(=O)[C@H]4CCCO4)CC3)nc(N)c2cc1OC [(R)-Terazosin]
- Cholesterol-free [1, 19]: 1.165
- Complete ([1]; NCI-H292 cells, complete media): 0.7551
- Difference [1, 20]: −0.41
- Cholesterol-free media + simvastatin (0.04 μM) [2, 21]: 0.9379
- Complete Media [2, 22]: 0.9227
- Difference [2, 23]: −0.02
